Test results reported in patent US9937151B2, “Carbapenem antibacterials with gram-negative activity” (priority 2010, dated 2018).

Test system: G(−) bacterial strains
Experiment: Dilution antimicrobial susceptibility tests (MIC, NCCLS agar dilution / broth dilution)
Format: cell-based, Gram-negative organisms
Conditions: unit assumed
Method in brief: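 Agar dilution on Mueller-Hinton agar at 10^4 CFU/spot and broth dilution at 5×10^5 CFU/well, per NCCLS M7-A5. Streptococci tested on Mueller-Hinton agar with 5% sheep blood. MIC taken as minimum inhibitory concentration; ATCC control strains run alongside.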

[1] = strain #1 Acinetobacter calcoaceticus
[2] = strain #2 Acinetobacter baumannii, Cf-R, Ci-R
[3] = strain #3 Acinetobacter baumannii, Cf-R, Ci-R, Mp-I
[4] = strain #4 Acinetobacter baumannii, Cf-R, Imp-I, CBPase
[5] = strain #7 Enterobacter aerogenes
[6] = strain #8 Enterobacter cloacae, Cf-R, B+
[7] = strain #9 Enterobacter cloacae, Cf-R
[8] = strain #10 Escherichia coli, Ci-R
[9] = strain #11 Escherichia coli, Ci-R, AmpC
[10] = strain #15 Klebsiella pneumoniae
[11] = strain #16 Moraxella catarrhalis
[12] = strain #21 Providencia rettgeri
[13] = strain #22 Salmonella typhimurium
[14] = strain #25 Shigella dysenteriae
[15] = strain #28 Stenotrophomonas maltophilia

Measured: MIC

C[C@@H](O)C1C(=O)N2C(C(=O)O)=C(CN3CC[C@H](NC(=O)CNS(N)(=O)=O)C3)[C@H](C)C12 (stereo partly shown) [Compound 163]
≤ 0.008 µg/mL: [11]
0.5 µg/mL: strain #5 Citrobacter diversus | [6] | [8] | [9] | strain #12 Escherichia coli | strain #13 Escherichia coli | strain #20 Proteus mirabilis | [13] | strain #26 Shigella sonnei | strain #27 Shigella flexneri
1 µg/mL: strain #6 Citrobacter freundii | [7] | strain #14 Klebsiella oxytoca | [10] | [12] | [14] | [15]
16 µg/mL: [4]
4 µg/mL: [2] | strain #19 Proteus vulgaris
2 µg/mL: [1] | [5] | strain #23 Serratia marcescens | strain #24 Serratia marcescens
8 µg/mL: [3] | strain #17 Morganella Morganii | strain #18 Morganella Morganii

C[C@@H](O)C1C(=O)N2C(C(=O)O)=C(CN3CC[C@@H](C(N)=O)C3)[C@H](C)C12 (stereo partly shown) [Compound 115]
0.25 µg/mL: strain #5 Citrobacter diversus | strain #6 Citrobacter freundii | [7] | [8] | [9] | strain #12 Escherichia coli | strain #13 Escherichia coli | strain #14 Klebsiella oxytoca | strain #20 Proteus mirabilis | [13] | [14] | strain #26 Shigella sonnei | strain #27 Shigella flexneri | [15]
8 µg/mL: strain #33 Pseudomonas aeruginosa, Ci-R | strain #34 Pseudomonas aeruginosa, Gen-R | strain #35 Pseudomonas aeruginosa, Ip-R
0.5 µg/mL: [1] | [10] | strain #23 Serratia marcescens
4 µg/mL: strain #29 Pseudomonas aeruginosa | strain #30 Pseudomonas aeruginosa | strain #32 Pseudomonas aeruginosa, Cf-R
≤ 0.008 µg/mL: [11]
1 µg/mL: [2] | [4] | [5] | strain #19 Proteus vulgaris | [12] | strain #24 Serratia marcescens | strain #31 Pseudomonas aeruginosa, Ofx-R
2 µg/mL: [3] | strain #17 Morganella Morganii | strain #18 Morganella Morganii
> 32 µg/mL: strain #36 Pseudomonas aeruginosa, Cf-R, Ci-R, Mp-R
0.13 µg/mL: [6]
